Measurements taken from publication PMC6331789, “Phytochemicals from Ruta graveolens Activate TAS2R Bitter Taste Receptors and TRP Channels Involved in Gustation and Nociception” (Molecules, 2015).

Assays:
[1] = test system: TAS2R10; details: cited from earlier work; for Selective agonism of TAS2R10 (literature): described in the literature, no reference given
[2] = test system: TAS2R14; details: cited from earlier work
[3] = biological target: T1, TAS2R10 (Homo sapiens, UniProt Q9NYW0); test: In vitro calcium imaging assay on cloned TAS2R10 in transfected HEK293T cells; assay type: cell-based; details: concentration/response curve; values with ≥ estimated, curve did not saturate; read-out: EC50 TAS2R10
T1 construct: expressed in transfected cells; host or cells: HEK293T
T1 sequence (Q9NYW0 1-307): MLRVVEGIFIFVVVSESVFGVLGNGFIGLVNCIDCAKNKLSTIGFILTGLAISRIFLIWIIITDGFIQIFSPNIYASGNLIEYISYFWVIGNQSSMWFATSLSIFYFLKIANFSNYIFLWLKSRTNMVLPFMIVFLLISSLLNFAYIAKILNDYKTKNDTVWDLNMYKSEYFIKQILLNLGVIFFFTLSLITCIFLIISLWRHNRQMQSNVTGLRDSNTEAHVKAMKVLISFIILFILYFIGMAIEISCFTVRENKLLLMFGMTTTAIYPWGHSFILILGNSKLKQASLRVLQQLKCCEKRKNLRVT
From the text: (§1) Pure phytochemicals were submitted to in vitro assays with a platform of twenty cloned receptors of the bitter taste TAS2R family and four receptors of the TRP family related to the perception of taste and somatosensory sensations. All experiments have been repeated three times, each time with four replicates. […] For simplicity, only those bitter taste receptors having reproducible positive assay, namely TASR10, 14 and 49, are reported (Table 1).
(§2) For those compounds showing activity on one or more receptor(s), the concentration/response curves were plotted and the EC50 calculated.
(§3) For the biological tests, several compounds were purchased as references from different suppliers (Sigma Aldrich, ChromaDex, Irvine, CA, USA, and Tocris Bioscience, Bristol, UK) and dissolved in assay buffer (130 mM NaCl, 5 mM KCl, 1 mM MgCl2, 2 mM CaCl2, 5 mM NaHCO3 and 20 mM HEPES, pH 7.4) or in a mixture of assay buffer and DMSO, never exceeding a final DMSO concentration of 0.5% (v/v) to avoid toxic effects and possible artefacts on transfected cells.
(§4) All human TAS2R and G15Gi1 cDNAs were produced as reported in Bassoli et al. cDNAs for human TRPA1-M5-M8-V1-V4 were cloned into a pcDNA6 expression vector (Invitrogen-Thermo Fisher, Waltham, MA, USA).
(§5) All experiments were performed using HEK293T cells (ATCC).
(§6) For the bitter platform experiments, cells were cultured, transfected and analyzed as previously described.
(§7) For the bitter platform experiments, data analyses were performed as previously described.
(§8) For the calculation of concentration-response curves, responses were calculated as the difference between maximal and minimal relative fluorescence unit (RFU) values in a selected time window (11–60 s) and were normalized to the basal well fluorescence (Time Point 1, before compound injection) in order to compensate for differences in cell density (∆F/F0). All of the experiments have been repeated three times, each time with four replicates. All of the results are averages of at least four replicates. Raw data are available in Supplementary Material, Figures S3–S6.

[4] = test system: TAS2R49; design: method as in PMID 20022913; details: cited from earlier work
[5] = test system: bitter taste receptor; design: method as in PMID 24117141; details: cited from earlier work
[6] = biological target: T2, TAS2R14 (Homo sapiens, UniProt Q9NYV8); test: In vitro calcium imaging assay on cloned TAS2R14 in transfected HEK293T cells; assay type: cell-based
T2 construct: expressed in transfected cells; host or cells: HEK293T
T2 sequence (Q9NYV8 1-317): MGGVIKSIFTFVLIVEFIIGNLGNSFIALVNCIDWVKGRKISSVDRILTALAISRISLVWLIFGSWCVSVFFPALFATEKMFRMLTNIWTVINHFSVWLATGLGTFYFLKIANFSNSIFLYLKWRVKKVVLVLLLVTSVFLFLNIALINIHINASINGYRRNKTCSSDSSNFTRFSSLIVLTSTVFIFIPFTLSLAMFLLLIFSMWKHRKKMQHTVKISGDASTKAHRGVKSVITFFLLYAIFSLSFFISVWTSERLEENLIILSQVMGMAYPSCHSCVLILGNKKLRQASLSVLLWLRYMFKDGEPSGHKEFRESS
From the text: as §1, §2, §3, §4, §5, §6, §7, §8

[7] = biological target: T3, TRPM5 (Homo sapiens, UniProt Q9NZQ8); test: In vitro membrane potential dye assay (FLIPR) on HEK293T cells stably overexpressing TRPM5; assay type: cell-based; details: concentration/response curve; values with ≥ estimated
T3 construct: expressed in transfected cells
T3 sequence (Q9NZQ8 1-1165): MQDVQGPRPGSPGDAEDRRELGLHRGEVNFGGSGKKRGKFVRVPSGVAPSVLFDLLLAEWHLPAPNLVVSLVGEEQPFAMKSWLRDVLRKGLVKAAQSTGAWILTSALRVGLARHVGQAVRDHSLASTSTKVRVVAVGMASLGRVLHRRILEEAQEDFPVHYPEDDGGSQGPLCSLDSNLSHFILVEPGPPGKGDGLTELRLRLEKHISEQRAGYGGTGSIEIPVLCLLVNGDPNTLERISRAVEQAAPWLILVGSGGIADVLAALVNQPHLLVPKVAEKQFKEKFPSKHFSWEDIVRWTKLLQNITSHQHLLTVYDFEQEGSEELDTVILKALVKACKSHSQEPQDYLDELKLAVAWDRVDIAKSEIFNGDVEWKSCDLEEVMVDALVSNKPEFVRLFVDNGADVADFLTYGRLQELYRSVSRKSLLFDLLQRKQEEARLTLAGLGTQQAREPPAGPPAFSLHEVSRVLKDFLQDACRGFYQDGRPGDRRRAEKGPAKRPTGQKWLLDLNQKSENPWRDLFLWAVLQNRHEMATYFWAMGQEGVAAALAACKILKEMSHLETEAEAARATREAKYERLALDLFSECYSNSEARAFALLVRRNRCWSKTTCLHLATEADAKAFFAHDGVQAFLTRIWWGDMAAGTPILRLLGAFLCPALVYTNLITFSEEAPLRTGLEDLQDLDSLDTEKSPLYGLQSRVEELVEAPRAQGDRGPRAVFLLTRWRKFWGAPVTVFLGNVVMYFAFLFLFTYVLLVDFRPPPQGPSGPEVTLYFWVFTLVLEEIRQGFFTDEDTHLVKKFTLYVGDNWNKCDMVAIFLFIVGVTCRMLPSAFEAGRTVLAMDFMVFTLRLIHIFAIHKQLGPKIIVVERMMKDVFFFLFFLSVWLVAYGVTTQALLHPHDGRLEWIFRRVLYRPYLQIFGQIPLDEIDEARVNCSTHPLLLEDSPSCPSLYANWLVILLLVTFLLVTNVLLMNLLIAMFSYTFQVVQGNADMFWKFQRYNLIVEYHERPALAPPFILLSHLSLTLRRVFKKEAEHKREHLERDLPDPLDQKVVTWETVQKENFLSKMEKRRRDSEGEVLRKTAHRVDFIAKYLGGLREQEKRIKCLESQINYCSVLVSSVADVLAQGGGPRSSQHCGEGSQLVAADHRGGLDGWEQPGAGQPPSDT
From the text: as §1, §2, §3, §4, §5
(§9) For TRP platform experiments, cells were cultured in MEM/EBSS medium (ECB2071L EuroClone, Milan, Italy) plus 10% (v/v) fetal bovine serum (FBS) (26400-044 Gibco, Karlsruhe, Germany) and 1% (v/v) Pen/Strep 10K/10K stock (17-602E Lonza, Basel, Switzerland). Stable cell lines were generated overexpressing each TRP channel, and clones were selected with 500 µg/mL of G418 (ant-gn-5 Invivogen, Karlsruhe, Germany). To analyze TRP receptor responses, cells were plated at a concentration of 20,000 cells/well in 384-well plates (GR-4330 Twin Helix srl, Milan, Italy). Cellular responses were measured 24 h after seeding.
(§10) For TRPM5 experiments, cells were loaded 24 h after seeding with a Membrane Potential Dye (R8034 MDC) solution in assay buffer according to the manufacturer’s instructions and incubated at 37 °C for 1 h before acquisition. All experiments were performed using a fluorometric imaging plate reader (FLIPR^TETRA, Molecular Devices equipped with ICCD Camera from Stanford Photonics, INC, (Palo Alto, CA, USA) and kinetics were visualized with Molecular Devices’ Screenworks 3.0 (Sunnyvale, CA, USA).
as §8

[8] = biological target: T4, TAS2R49 (Homo sapiens, UniProt P59543); test: In vitro calcium imaging assay on cloned TAS2R49 in transfected HEK293T cells; assay type: cell-based; details: concentration/response curve; read-out: EC50 TAS2R49
T4 construct: expressed in transfected cells; host or cells: HEK293T
T4 sequence (P59543 1-309): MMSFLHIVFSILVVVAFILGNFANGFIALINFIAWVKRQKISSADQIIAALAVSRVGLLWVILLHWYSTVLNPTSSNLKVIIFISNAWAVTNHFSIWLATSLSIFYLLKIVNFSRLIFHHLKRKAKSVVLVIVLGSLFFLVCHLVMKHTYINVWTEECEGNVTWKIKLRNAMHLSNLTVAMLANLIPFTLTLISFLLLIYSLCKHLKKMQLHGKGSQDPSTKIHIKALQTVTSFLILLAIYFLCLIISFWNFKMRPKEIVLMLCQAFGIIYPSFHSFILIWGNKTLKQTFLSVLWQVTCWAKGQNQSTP
From the text: as §1, §2, §3, §4, §5, §6, §7, §8

[9] = test system: TRPM8; details: cited from earlier work
[10] = biological target: T5, TRPM8 (Homo sapiens, UniProt Q7Z2W7); test: In vitro Fluo8-NW calcium assay (FLIPR) on HEK293T cells stably overexpressing TRPM8; assay type: cell-based; details: concentration/response curve
T5 construct: expressed in transfected cells
T5 sequence (Q7Z2W7 whole entry): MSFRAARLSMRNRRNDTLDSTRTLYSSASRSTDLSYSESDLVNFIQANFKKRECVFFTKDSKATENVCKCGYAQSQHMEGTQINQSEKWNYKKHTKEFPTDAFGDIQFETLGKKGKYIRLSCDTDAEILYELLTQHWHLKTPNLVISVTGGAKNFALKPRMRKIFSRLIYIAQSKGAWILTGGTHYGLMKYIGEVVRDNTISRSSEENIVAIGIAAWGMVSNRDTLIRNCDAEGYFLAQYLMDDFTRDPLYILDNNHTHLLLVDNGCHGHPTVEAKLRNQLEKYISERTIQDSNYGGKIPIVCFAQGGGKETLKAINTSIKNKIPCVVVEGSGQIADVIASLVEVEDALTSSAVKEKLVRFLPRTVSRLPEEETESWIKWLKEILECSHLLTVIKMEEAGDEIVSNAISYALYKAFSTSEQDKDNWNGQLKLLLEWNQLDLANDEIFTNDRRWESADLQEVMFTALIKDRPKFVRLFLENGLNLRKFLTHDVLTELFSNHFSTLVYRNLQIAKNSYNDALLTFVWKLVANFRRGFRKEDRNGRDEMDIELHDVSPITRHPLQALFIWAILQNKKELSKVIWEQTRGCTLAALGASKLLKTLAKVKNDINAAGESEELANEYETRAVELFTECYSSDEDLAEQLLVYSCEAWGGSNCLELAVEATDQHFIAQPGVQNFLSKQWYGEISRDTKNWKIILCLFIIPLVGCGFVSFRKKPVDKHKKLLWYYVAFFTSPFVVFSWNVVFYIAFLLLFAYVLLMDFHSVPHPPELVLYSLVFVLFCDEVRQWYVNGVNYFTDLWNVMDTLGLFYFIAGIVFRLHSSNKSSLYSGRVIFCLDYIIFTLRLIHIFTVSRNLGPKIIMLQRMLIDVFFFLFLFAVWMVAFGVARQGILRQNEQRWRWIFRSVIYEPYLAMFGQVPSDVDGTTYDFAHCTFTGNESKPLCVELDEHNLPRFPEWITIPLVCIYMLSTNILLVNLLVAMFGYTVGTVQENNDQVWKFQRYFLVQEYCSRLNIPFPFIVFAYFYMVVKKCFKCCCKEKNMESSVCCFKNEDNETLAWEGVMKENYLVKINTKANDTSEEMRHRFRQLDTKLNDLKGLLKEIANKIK
From the text: as §1, §2, §3, §4, §5, §9
For TRPA1-M8-V1-V4 experiments, a solution of Fluo8-NW calcium-sensitive dye (36316 AAT BioQuest, Sunnyvale, CA, USA) was prepared using the assaybuffer and diluting the kit components 1:2 according to the manufacturer’s instructions. Twenty-four hours after seeding, cells were incubated one hour at RT, loaded with 40 µL of Fluo8-NW solution for each well and incubated again for one hour at RT before data acquisition.
as §10, §8

SMILES: O=c1ccc2ccccc2o1 [Coumarin]
- Agonism of TAS2R10 (literature) [1]: known agonist
- Agonism of TAS2R14 (literature) [2]: known agonist

SMILES: CC[N+](CC)(CC(=O)Nc1c(C)cccc1C)Cc1ccccc1 [Denatonium Benzoate, reference compound]
- EC50 [3]: 8.3 µM

SMILES: OC(CCCN1CCCCC1)(c1ccccc1)c1ccccc1 [diphenidol]
- Agonism of TAS2R49 (literature) [4]: non-selective agonists

SMILES: O=c1cc(-c2ccc(O)c(O)c2)oc2cc(O)cc(O)c12 [luteolin]
- Bitter taste receptor activation of flavonoids (literature) [5]: active

SMILES: CC(=O)OC(C)(C)/C=C/C(=O)[C@](C)(O)[C@H]1[C@H](O)C[C@@]2(C)[C@@H]3CC=C4[C@@H](C=C(O)C(=O)C4(C)C)[C@]3(C)C(=O)C[C@]12C [cucurbitacin E]
- Selective agonism of TAS2R10 (literature) [1]: selective agonists

SMILES: COc1cccc2c1cc([N+](=O)[O-])c1c(C(=O)O)cc3c(c12)OCO3 [Aristolochic Acid, reference compound]
- EC50 [6]: 2.3 µM

SMILES: COc1ccc2c(c1OC)C(=O)O[C@@H]2[C@H]1c2c(cc3c(c2OC)OCO3)CCN1C [noscapine]
- Selective agonism of TAS2R14 (literature) ([2]; described in the literature, no reference given): selective agonist

SMILES: C[N+](C)(C)CCOC(N)=O [Carbachol, reference compound]
- EC50 [7]: 4.3 µM

SMILES: O=c1c(O)c(-c2ccc(O)c(O)c2)oc2cc(O)cc(O)c12 [quercetin]
- Bitter taste receptor activation of flavonoids (literature) [5]: still active, but with lower efficacy

SMILES: O=C(O)c1cc(=O)c2c(OCC(O)COc3cccc4oc(C(=O)O)cc(=O)c34)cccc2o1 [cromolyn]
- Agonism of TAS2R49 (literature) [4]: non-selective agonists

SMILES: Cc1nc2sccn2c(=O)c1CCN1CCC(=C(c2ccc(F)cc2)c2ccc(F)cc2)CC1 [Ritanserin, reference compound]
- EC50 [8]: 6 µM

SMILES: CC[C@H]1CC2CN3CCc4c([nH]c5ccc(OC)cc45)[C@](C(=O)OC)(C2)[C@H]13 (stereo in doubt) [voacangine]
- TRPM8 inhibition (literature) [9]: potent TRPM8 inhibitor

SMILES: CC[C@H]1OC(=O)[C@H](C)[C@@H](O[C@H]2C[C@@](C)(OC)[C@@H](O)[C@H](C)O2)[C@H](C)[C@@H](O[C@@H]2O[C@H](C)C[C@H](N(C)C)[C@H]2O)[C@](C)(O)C[C@@H](C)C(=O)[C@H](C)[C@@H](O)[C@]1(C)O [erythromycin]
- Selective agonism of TAS2R10 (literature) [1]: selective agonists

SMILES: CCNC(=O)C1CC(C)CCC1C(C)C (stereo not drawn) [WS3, reference compound]
- EC50 [10]: 4 µM
